# Measured values from PMC6131539, “Behavioral Effects of a Potential Novel TAAR1 Antagonist” (Frontiers in Pharmacology, 2018).
# Tests used:
# Format in all cases: in vivo
# C57BL/6J mice [1] = experiment: Stereotypic counts, co-injection with cocaine, C57BL/6J mice; conditions: 5 and 25 mg/kg co-injected with cocaine 10 mg/kg; sum over 60 min
# C57BL/6J mice [2] = experiment: Stereotypic counts, co-injection with amphetamine, C57BL/6J mice; conditions: 5 and 20 mg/kg co-administered with amphetamine 2 mg/kg; sum over 60 min
# Protocol: Experimentally naïve mice, of at least 12 weeks of age, were used for all behavioral experiments. The mice were randomly assigned to treatment or control groups, balanced by sex and weight. Locomotor activity was assessed using the automated locomotor analysis monitors (Omnitech Electronics, Columbus, OH, United States). The apparatus included four open field monitors. Each Open Field monitor consisted of sets of 16 light beams arrayed in the horizontal X and Y axes. The hardware detected beams broken by the animal, which allowed the software to determine the location of the mouse in the cage. Total distance covered by mice was used to characterize locomotor activity of the animals. The monitors were divided into four compartments (20 cm × 20 cm). Animals were tested individually for defined periods with 5-min intervals. The mice were first weighed and then placed into the apparatus, allowing for 30 min habituation. […] The locomotor activity was then measured for additional 1 h. […]
# (A) Wild type C57BL/6J mice were first habituated for 30 min followed by the co-injection of amphetamine (2 mg/kg) and saline or compound 22 at doses 5, 15, 20, 25, 30, and 50 mg/kg. The locomotor activity was assessed for 60 min after the injection. Sum of stereotypic counts assessed over 60 min after the injection of amphetamine and compound 22. […] The locomotor activity was assessed for 60 min after the injection. […]
# TAAR1-KO mice = experiment: Basal locomotor activity in TAAR1-KO mice; conditions: 5 and 25 mg/kg alone, 60 min
# Protocol: The Taarl^-/- (TAAR1-KO) mice were obtained from Lundbeck ([Wolinsky et al., 2007]). All wild type (WT) and TAAR1-KO mice used for experiments were generated from TAAR1-KO heterozygous mice in a C57BL/6J x 129S1/Sv mixed background. Experimentally naïve mice, of at least 12 weeks of age, were used for all behavioral experiments. The mice were randomly assigned to treatment or control groups, balanced by sex and weight. Locomotor activity was assessed using the automated locomotor analysis monitors (Omnitech Electronics, Columbus, OH, United States). The apparatus included four open field monitors. Each Open Field monitor consisted of sets of 16 light beams arrayed in the horizontal X and Y axes. The hardware detected beams broken by the animal, which allowed the software to determine the location of the mouse in the cage. Total distance covered by mice was used to characterize locomotor activity of the animals. The monitors were divided into four compartments (20 cm × 20 cm). Animals were tested individually for defined periods with 5-min intervals. The mice were first weighed and then placed into the apparatus, allowing for 30 min habituation. […] The locomotor activity was then measured for additional 1 h. […] The locomotor activity was assessed for 60 min following the injection. […]
structure (smiles),measurement,setting,value
Clc1ccc(CNCc2ccc(Cn3cncn3)cc2)c(Cl)c1 [compound 22],stereotypic counts,C57BL/6J mice [1],increase in stereotypic counts
same,stereotypic counts,C57BL/6J mice [2],statistically significant increase in stereotypic counts
same,effect on basal locomotor activity,TAAR1-KO mice,did not significantly alter
